Here are results for one molecule from patent US5932580A, “PDGF receptor kinase inhibitory compounds their preparation and compositions” (priority 1997, dated 1999).

Read-outs that look alike come from different tables or passages of the source. Where only a bound is given, the exact number is not on record here.

One test has as its target T1, PDGF β-receptor (Sus scrofa, UniProt F1RL75).
T1 construct: PDGF-BB stimulated; immunoprecipitated with PDGF beta-receptor specific antiserum R3
As to the kind of experiment: PDGF induced PDGFR autophosphorylation in intact SMC cells. Format: cell-based. As to conditions: porcine arterial SMC. The method, then: Effect of tyrphostins on PDGF induced PDGFR autophosphorylation in intact SMC cells: Subconfluent porcine arterial smooth muscle cells, cultivated in Dulbecco's modified Eagle's medium (DMEM) supplemented with 15% fetal calf serum (FCS), were synchronized for 20 hours in a medium containing 2% FCS. […] After stimulation, the cells were solubilized in Nonidet P-40 (1%) containing lysis buffer.
The analysis of PDGF p-receptor phosphorylation was performed as follows. Cell lysates were subjected to immunoprecipitation using the PDGF β-receptor specific antiserum R3 [5]. The percipitates were subjected to polyacrylamide (7.5%) gel electrophoresis in presence of sodium deducyl sulfate (SDS-PAGE) and were thereafter blotted onto a nitrocellulose membrane (Hybond C-EXTRA, Amersham). Phosphorylated proteins were detected by immunoblotting using the horseradish-peroxidase conjugated phosphotyrosine antibody RC20H (Transduction Laboratories), followed by chemoluminescence-based detection (ECL, Amersham) and autoradiography.
Detection of receptor proteins was performed as follows. Cell lysates were subjected to immunoprecipitation using the PDGF β-receptor specific antiserum R3 [5], as described above, and the percipitates washed three times and thereafter subjected to SDS-PAGE (7.5%) and blotting onto a nitrocellulose membrane (Hybond C-EXTRA, Amersham). Receptor proteins were detected by immunoblotting using the horseradish-peroxidase conjugated donkey anti-rabbit antibody (Amersham), followed by chemoluminescence-based detection (ECL, Amersham) and autoradiography.

In another test the test system is PDGFR. As to the kind of experiment: PDGFR autophosphorylation, isolated membranes or intact Swiss 3T3 cells. Format: biochemical. The conditions noted are these: read-out: IC50 (50% inhibition of phosphorylation) PDGFR. The procedure: Assay of receptor autophosphorylation in intact 3T3 cells: Confluent Swiss 3T3 cells in 24-well plates (Nunc) were incubated for 20-24 hours in serum-free DMEM. Subsequently, tyrphostins were added at concentrations ranging from 0 to 100 μM (final DMSO concentration, 0.5%) and the incubation was continued for 6-8 hours. The cells were then stimulated with 100 ng/ml PDGF-BB for 5 min at room temperature or 600 ng/ml EGF for 2.5 min on ice. The growth factor treatment was terminated by washing twice with ice-cold PBS and the cells were scraped off the wells in 60 μl lysis buffer containing 20 mM Hepes (pH 7.4), 150 mM NaCl, 1% Triton X-100, 10 mM sodium pyrophosphate, 50 mM NaF, 2 mM sodium-o-vanadate, 20 μm zinc acetate, 10 nM EDTA, 2 mM [ethylenebis(oxyethilenenitrilo)] tetraacetic acid, 1 mM phenylmethylsulfonyl fluoride, and 5 μg/ml leupeptin.
The cell lysates were clarified by centrifugation (cooled microfuge, 17,000 rpm, 15 min) and analyzed by SDS-PAGE (6.5% gels) and immunoblotting with anti-phosphotyrosine antibodies (either PY 20, ICN, and subsequently a peroxidase-coupled secondary antibody, or RC20-peroxidase conjugate, Affinity, Nottingham, United Kingdom). The blots were developed with a chemiluminescence detection system (Western Light, Tropix, or ECL, Amersham). In some experiments PDGF receptors were immunoprecipitated with PDGF-R3 or DIG-1 antibodies as described prior to the analysis by immunoblotting with anti-phosphotyrosine antibodies.
Membrane autophosphorylation assays: Membranes were prepared from confluent cultures of Swiss 3T3 cells as described. For measuring receptor autophosphorylation, 10 μg membrane protein per assay were incubated for 20 min on ice in the presence of 1.2 μg/ml EGF or 2 μg/ml PDGF, or both; 50 mM Hepes (pH 7.5); and 3 mm MnCl2 (final concentrations) in a volume of 45 μl. […] For quantification of radioactivity in electrophoresis gels, a Phospho-Imager (Molecular Dynamics, Fuji, or Bio-Rad) was used according to the instructions of the manufacturers. […]

The next test concerns the target T2, SRC kinase (Gallus gallus, UniProt P00523, Y527F).
T2 construct: expressed in transfected cells; host or cells: NIH 3T3, stably transfected (gift of S. Courtneidge, Heidelberg)
Briefly: Src kinase activity assay (immunoprecipitate from src-transformed NIH 3T3 cells). Format: biochemical, chicken. The method, then: Src kinase activity assay: src-transformed NIH 3T3 cells were grown in 24-well plates to confluency; rinsed twice with a solution containing 20 mM Tris, 0.1 mM sodium-o-vanadate, and 150 mM NaCl (pH 7.5); and lysed in 100 μl/well of lysis buffer containing 20 mM Tris (pH 8.0), 150 mM NaCl, 1% Nonidet P-40, 2.5 mM EDTA, 10 mM NaF, 1% trasylol, and 20 μm leupeptin. The lysate was clarified by centrifugation and subjected to immunoprecipitation with the anti-Src monoclonal antibody MAb 327 (Oncogene Science; 0.5 μg antibody/80 μg protein) for 1 hour at 4° C. Then, goat anti-mouse IgG (Sigma; 0.2 μg per 0.5 μg monoclonal antibody 327) was added and incubation was continued for 30 mi followed by another 40 min of incubation with 10 μl of protein A-Sepharose Cl-4B (Pharmacia). The immunoprecipitates were washed five times with the lysis buffer and twice with kinase buffer containing 40 mM Hepes (pH 7.4), 0.5 mM dithiothreitol, 5 mM MnCl2, and 0.1 mM sodium-o-vanadate. The immunoprecipitates were suspended in kinase buffer and aliquots corresponding to 40 μg of cell lysate protein were preincubated with or without tyrphostin for 15 min at 30° C. Then, the kinase reaction was performed in the presence of 2 μg of acid-treated enolase and 10 μCi of [γ-^32 P]ATP (2 μM) in a final volume of 30 μl. The reaction was terminated by addition of SDS-PAGE sample buffer (6% SDS, 30% β-mercaptoetlhanol, 40% glycerol, and 0.5 mg/ml bromophenol blue) and the incorporation of radioactivity in the enolase was analyzed by SDS-PAGE and autoradiography as well as Phosphor-Imager quantification.

The target in a further test is T3, EGFR (Mus musculus, UniProt Q01279).
T3 construct: Membranes were prepared from confluent cultures of Swiss 3T3 cells; endogenous in cells; host or cells: Swiss 3T3 (obtained from E. Rozengurt, London)
As to the kind of experiment: EGFR autophosphorylation, isolated membranes or intact Swiss 3T3 cells. Format: biochemical. As to conditions: read-out: IC50 (50% inhibition of phosphorylation) EGFR.

Test [1] deals with porcine aortic smooth muscle cells (SMC). Briefly: Inhibition of cell proliferation and recovery, porcine SMC. Format: cell-based. As to conditions: for inhibition at 10 µM: Sus scrofa. The method, then: Smooth muscle cells (SMC) were obtained under aseptic conditions from porcine abdominal aortas, and human internal mammary arteries (IMA). Specimens from the operating room were transferred on ice to the tissue culture room. Each artery was cut open and the endothelial surface mechanically scraped. […] The tissue fragments were then placed in an incubator at 37° C. under 9% CO2 atmosphere until SMC outgrowth was detected (typically within 3-7 days). […] For experiments testing the effect of tyrphostins on growth inhibition and recovery (see below), SMC from passages 1-3 were replated in 15 mm wells pretreated with 3 μg/cm^2 fibronectin (Biological Industries, Kibbutz Beit Haemek, Israel) at 15,000 cells/well.
Inhibition of cell proliferation and recovery: Monolayer cell growth inhibition and recovery experiments were repeated 3 or 4 times. Each experiment was performed in triplicate. […] Cultures were treated with a tyrphostin (10 μM) dissolved in 0.1% DMSO on days 1 and 3. On day 6, cultures were washed and the cells allowed to recover. Typically cells were counted on days 3 and 5 for inhibition, and on days 7, 10 and 15 for recovery, other schedules were also employed as reported below.

T1 sequence (F1RL75 109-1181): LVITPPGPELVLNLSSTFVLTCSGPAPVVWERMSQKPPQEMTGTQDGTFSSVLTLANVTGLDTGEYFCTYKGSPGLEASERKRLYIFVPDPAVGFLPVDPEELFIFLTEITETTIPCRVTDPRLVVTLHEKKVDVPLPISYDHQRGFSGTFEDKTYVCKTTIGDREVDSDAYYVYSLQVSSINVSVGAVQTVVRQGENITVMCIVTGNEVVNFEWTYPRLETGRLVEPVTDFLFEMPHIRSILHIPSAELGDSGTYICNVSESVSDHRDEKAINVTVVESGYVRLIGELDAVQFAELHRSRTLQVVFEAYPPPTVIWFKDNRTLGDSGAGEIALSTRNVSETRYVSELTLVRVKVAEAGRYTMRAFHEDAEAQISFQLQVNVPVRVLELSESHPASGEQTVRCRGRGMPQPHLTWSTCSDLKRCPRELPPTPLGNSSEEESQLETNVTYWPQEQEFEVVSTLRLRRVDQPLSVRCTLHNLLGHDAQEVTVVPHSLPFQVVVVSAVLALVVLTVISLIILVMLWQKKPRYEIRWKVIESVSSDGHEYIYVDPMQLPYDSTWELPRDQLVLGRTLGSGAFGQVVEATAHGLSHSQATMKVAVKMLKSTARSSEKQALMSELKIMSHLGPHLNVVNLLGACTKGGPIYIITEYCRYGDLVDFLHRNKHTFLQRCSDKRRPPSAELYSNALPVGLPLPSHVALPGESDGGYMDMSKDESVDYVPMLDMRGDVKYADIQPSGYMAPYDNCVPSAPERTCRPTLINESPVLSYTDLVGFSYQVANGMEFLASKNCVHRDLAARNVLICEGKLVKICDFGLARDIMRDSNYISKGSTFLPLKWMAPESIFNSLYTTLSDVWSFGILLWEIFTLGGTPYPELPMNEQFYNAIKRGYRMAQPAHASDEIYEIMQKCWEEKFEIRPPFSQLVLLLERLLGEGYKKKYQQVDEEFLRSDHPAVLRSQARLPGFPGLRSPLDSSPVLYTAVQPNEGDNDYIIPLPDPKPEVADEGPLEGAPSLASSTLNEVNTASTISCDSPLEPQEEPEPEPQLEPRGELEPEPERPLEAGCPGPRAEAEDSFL
T3 sequence (Q01279 25-1210): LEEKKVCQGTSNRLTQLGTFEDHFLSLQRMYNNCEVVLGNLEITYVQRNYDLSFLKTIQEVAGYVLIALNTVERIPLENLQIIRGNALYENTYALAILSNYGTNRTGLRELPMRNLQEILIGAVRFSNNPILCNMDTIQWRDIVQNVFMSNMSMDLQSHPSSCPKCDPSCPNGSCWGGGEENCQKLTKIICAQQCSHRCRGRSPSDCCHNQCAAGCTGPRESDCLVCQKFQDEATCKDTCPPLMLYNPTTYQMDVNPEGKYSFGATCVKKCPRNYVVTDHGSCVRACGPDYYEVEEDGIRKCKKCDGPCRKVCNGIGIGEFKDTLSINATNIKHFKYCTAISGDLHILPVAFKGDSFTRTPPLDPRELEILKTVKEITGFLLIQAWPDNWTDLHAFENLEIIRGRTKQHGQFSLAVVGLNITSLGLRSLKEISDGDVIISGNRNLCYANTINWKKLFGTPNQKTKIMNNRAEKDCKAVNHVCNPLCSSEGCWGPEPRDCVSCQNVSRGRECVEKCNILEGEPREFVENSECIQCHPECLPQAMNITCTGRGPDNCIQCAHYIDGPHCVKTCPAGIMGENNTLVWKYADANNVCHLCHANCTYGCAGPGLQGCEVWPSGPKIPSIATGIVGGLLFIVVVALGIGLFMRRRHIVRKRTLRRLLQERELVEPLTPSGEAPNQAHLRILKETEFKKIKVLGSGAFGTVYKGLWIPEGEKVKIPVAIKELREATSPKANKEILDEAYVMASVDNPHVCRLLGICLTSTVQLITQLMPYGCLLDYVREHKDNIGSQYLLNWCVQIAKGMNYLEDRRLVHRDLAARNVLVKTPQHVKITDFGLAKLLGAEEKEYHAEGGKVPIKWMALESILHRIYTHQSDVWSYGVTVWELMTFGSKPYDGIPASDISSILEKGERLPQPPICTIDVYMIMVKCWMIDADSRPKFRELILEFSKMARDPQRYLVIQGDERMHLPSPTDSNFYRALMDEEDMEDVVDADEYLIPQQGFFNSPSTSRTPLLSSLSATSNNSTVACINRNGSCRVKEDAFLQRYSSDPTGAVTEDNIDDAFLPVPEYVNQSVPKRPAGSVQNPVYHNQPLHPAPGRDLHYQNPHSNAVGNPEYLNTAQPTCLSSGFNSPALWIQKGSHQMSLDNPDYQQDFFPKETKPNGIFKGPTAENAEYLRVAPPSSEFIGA
Experimental for EGFR: Membrane autophosphorylation assays: Membranes were prepared from confluent cultures of Swiss 3T3 cells as described [22]. For measuring receptor autophosphorylation, 10 μg membrane protein per assay were incubated for 20 min on ice in the presence of 1.2 μg/ml EGF or 2 μg/ml PDGF, or both; 50 mM Hepes (pH 7.5); and 3 mm MnCl2 (final concentrations) in a volume of 45 μl. In order to test the effects and determine the IC50 value of various tyrphostins, these were added in a volume of 0.5 μl (in DMSO; final concentration, 0.5%) 15 min before addition of the growth factors, in a range of concentrations. […] For quantification of radioactivity in electrophoresis gels, a Phospho-Imager (Molecular Dynamics, Fuji, or Bio-Rad) was used according to the instructions of the manufacturers. […]

A word on the IC50: it is the midpoint of a concentration-inhibition curve. For the molecule `Cc1cc2ncc(-c3cccs3)nc2cc1C` [AG1990], on PDGF β-receptor, the “level of PDGF β-receptor protein present in the cells” value is “without affecting the level”. The “inhibition of PDGF-BB induced PDGF β-receptor tyrosine-phosphorylation” value on PDGF β-receptor (tyrphostin 10 μM, 60 min preincubation, PDGF-BB 100 ng/ml) was “completely inhibited”. For the same molecule, the IC50 with PDGFR was 1 µM; at SRC kinase it was 20 µM; at EGFR it was > 30 µM. Also, the inhibition at 10 µM was 50% in test [1] (120 h, by day 5 (day given for AG1295 and AG1992), read-out: reduction in SMC count / inhibition of SMC growth over control); 50% in test [1] (Table 2, read-out: mean reduction in SMC count compared to control cells (maximal inhibition in SMC growth)). The “reversibility of the inhibitory effect / recovery of SMC growth after washout” value in test [1] (porcine SMC, cultures washed, cells allowed to recover) is listed as “completely reversible”.
